This passage reports Ki results from patent US20250122225A1, “MASP-2 INHIBITORS AND METHODS OF USE” (Omeros Corporation, priority 2023, published 2025).

One test has as its target T1, human α-thrombin (Homo sapiens, UniProt P00734).
T1 construct: enzyme (human α-thrombin (BioPharm® Lab.)) in assay buffer; purchased BioPharm® Lab
Briefly: Enzymatic assay for thrombin (fluorogenic peptide substrate Boc-VPR-AMC). In kind it is biochemical. In outline: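 Human α-thrombin was run with the fluorogenic substrate Boc-VPR-AMC in 20 mM Hepes pH 7.4, 140 mM NaCl, 0.1% Tween 20 at room temperature for 20 min, then stopped with 0.1 M acetic acid. % activity was normalized to DMSO and no-enzyme controls. Under linear conditions IC50 equalled Ki, except for tight-binding inhibitors.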

Another test has as its target T2, MASP-2 (CCP1-CCP2-SP) (Homo sapiens, UniProt O00187).
T2 construct: 15 μL of Enzyme MASP-2 (CCP1-CCP2-SP) in Assay Buffer
Briefly: Enzymatic assay for MASP-2 inhibitory activity (fluorogenic substrate). In kind it is biochemical. The gist of the method: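 MASP-2 (CCP1-CCP2-SP) cleaved a fluorogenic substrate based on the C2 cleavage site in 20 mM HEPES pH 7.4, 140 mM NaCl, 0.1% Tween 20 at room temperature. After 20 min the reaction was stopped with 0.1 M acetic acid and fluorescence read. % activity was normalized to DMSO-only and no-enzyme controls; IC50 taken as Ki.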

Structures are written as SMILES. Where a name gives a salt, the structure may show the parent alone. Some results are limits rather than exact numbers.

T2 sequence (O00187 445-686 limits assumed): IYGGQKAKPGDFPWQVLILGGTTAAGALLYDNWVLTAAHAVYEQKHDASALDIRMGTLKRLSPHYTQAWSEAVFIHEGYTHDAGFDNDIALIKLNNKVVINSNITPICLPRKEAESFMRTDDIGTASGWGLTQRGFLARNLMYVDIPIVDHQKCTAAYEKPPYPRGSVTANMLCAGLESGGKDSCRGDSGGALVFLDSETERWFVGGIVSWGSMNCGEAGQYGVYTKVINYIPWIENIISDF
T2 sequence (O00187 287-444 partner limits assumed): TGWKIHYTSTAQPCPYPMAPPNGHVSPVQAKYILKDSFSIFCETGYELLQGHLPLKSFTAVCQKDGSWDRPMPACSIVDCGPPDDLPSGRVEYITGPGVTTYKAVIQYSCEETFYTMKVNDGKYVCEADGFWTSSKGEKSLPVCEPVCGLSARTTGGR

The term Ki denotes the dissociation constant of the complex between target and ligand, obtained from inhibition or displacement. `Cc1cc(F)cc(CNc2nc(C3CCCCC3)c3n(c2=O)[C@H](C(=O)NCc2cc4cnccc4[nH]2)CC3)c1` [Compound 177, trifluoroacetate]: the Ki at human α-thrombin was over 25000 nM; at MASP-2 (CCP1-CCP2-SP), under 500 nM.
In the same order, the values of `COc1cc(C)cc(CNc2ncc3n(c2=O)[C@H](C(=O)NCc2cc4cnc(C)cc4[nH]2)C[C@@H]3Cc2ccccc2)c1` [Compound 137, (6S,8S)-8-benzyl-3-((3-methoxy-5-methylbenzyl)amino)-N-((6-methyl-1H-pyrrolo[3,2-c]pyridin-2-yl)methyl)-4-oxo-4,6,7,8-tetrahydropyrrolo[1,2-a]pyrazine-6-carboxamide] are over 25000 nM and under 500 nM.
The corresponding values for `O=C(NCc1cc2cnccc2[nH]1)[C@@H]1CCc2c(Cl)nc(NCc3ccccc3)c(=O)n21` [Compound 105, (S)—N-((1H-pyrrolo[3,2-c]pyridin-2-yl)methyl)-3-(benzylamino)-1-chloro-4-oxo-4,6,7,8-tetrahydropyrrolo[1,2-a]pyrazine-6-carboxamide] are 10000 to 25000 nM and under 500 nM.
Take `O=C(NCc1cc2c(s1)CNC2)[C@@H]1CCc2cnc(N[C@@H]3CCc4ccc(-c5ccccc5)cc43)c(=O)n21` [Compound 260, (S)-N-((5,6-dihydro-4H-thieno[2,3-c]pyrrol-2-yl)methyl)-4-oxo-3-(((R)-6-phenyl-2,3-dihydro-1H-inden-1-yl)amino)-4,6,7,8-tetrahydropyrrolo[1,2-a]pyrazine-6-carboxamide trifluoroacetate]: the Ki was 2500 to 10000 nM on human α-thrombin and under 500 nM at MASP-2 (CCP1-CCP2-SP).
In the same order, the values of `[2H]C([2H])([2H])c1nc(NCc2cc(C)cc(F)c2)c(=O)n2c1CC[C@H]2C(=O)NCc1ccc(N)nc1C` [Compound 218, (S)-N-((6-amino-2-methylpyridin-3-yl)methyl)-3-((3-fluoro-5-methylbenzyl)amino)-1-(methyl-d3)-4-oxo-4,6,7,8-tetrahydropyrrolo[1,2-a]pyrazine-6-carboxamide trifluoroacetate] are under 500 nM and under 500 nM.
In the same order, the values of `O=C(NCc1cc2c(s1)CNC2)[C@@H]1CCc2c(Cl)nc(NCCc3ccccc3)c(=O)n21` [Compound 242] are under 500 nM and under 500 nM.
In the same order, the values of `Cc1cc(F)cc(CNc2nc(-c3cnn(C(F)F)c3)c3n(c2=O)[C@H](C(=O)NCc2cc4cnccc4[nH]2)CC3)c1` [Compound 215, (S)-N-((1H-pyrrolo[3,2-c]pyridin-2-yl)methyl)-1-(1-(difluoromethyl)-1H-pyrazol-4-yl)-3-((3-fluoro-5-methylbenzyl)amino)-4-oxo-4,6,7,8-tetrahydropyrrolo[1,2-a]pyrazine-6-carboxamide trifluoroacetate] are over 25000 nM and under 500 nM.
For the compound `O=C(NCc1cc2cnccc2[nH]1)[C@@H]1CCc2c(Cl)nc(NCc3cccc(C4CC4)c3)c(=O)n21` [Compound 133, (S)-N-((1H-pyrrolo[3,2-c]pyridin-2-yl)methyl)-1-chloro-3-((3-cyclopropylbenzyl)amino)-4-oxo-4,6,7,8-tetrahydropyrrolo[1,2-a]pyrazine-6-carboxamide], the results for the Ki on human α-thrombin and at MASP-2 (CCP1-CCP2-SP) were 2500 to 10000 nM and under 500 nM, respectively.
In the case of `CC[C@H]1C[C@@H](C(=O)NCc2cc3cnccc3[nH]2)n2c1c(Cl)nc(NCc1cc(C)cc(C)c1)c2=O` [Compound 160, (6S,8S)-N-((1H-pyrrolo[3,2-c]pyridin-2-yl)methyl)-1-chloro-3-((3,5-dimethylbenzyl)amino)-8-ethyl-4-oxo-4,6,7,8-tetrahydropyrrolo[1,2-a]pyrazine-6-carboxamide], the figures for the Ki at human α-thrombin and on MASP-2 (CCP1-CCP2-SP) were over 25000 nM and under 500 nM, respectively.
Turning to `Cc1ccccc1[C@H](C)Nc1ncc2n(c1=O)[C@H](C(=O)NCc1cc3cnccc3[nH]1)CC2` [Compound 83, (S)-N-((1H-pyrrolo[3,2-c]pyridin-2-yl)methyl)-4-oxo-3-(((S)-1-(o-tolyl)ethyl)amino)-4,6,7,8-tetrahydropyrrolo[1,2-a]pyrazine-6-carboxamide], the Ki at human α-thrombin is 2500 to 10000 nM; at MASP-2 (CCP1-CCP2-SP), under 500 nM.
As for `Cc1cc(F)cc(CNc2ncc3n(c2=O)[C@H](C(=O)NCc2ccc([C@@H](C)N)cc2)CC3)c1` [Compound 173, (S)—N-(4-((R)-1-aminoethyl)benzyl)-3-((3-fluoro-5-methylbenzyl)amino)-4-oxo-4,6,7,8-tetrahydropyrrolo[1,2-a]pyrazine-6-carboxamide trifluoroacetate], the Ki at human α-thrombin is over 25000 nM; on MASP-2 (CCP1-CCP2-SP), 2500 to 10000 nM.
As for `CC[C@@H](Nc1ncc2n(c1=O)[C@H](C(=O)N[C@@H](C)c1cc3c(s1)CNC3)CC2)c1ccccc1` [Compound 278], the Ki on human α-thrombin was 10000 to 25000 nM; on MASP-2 (CCP1-CCP2-SP) it was under 500 nM.
The corresponding values for `Cc1ccc(C)c(CNc2ncc3n(c2=O)[C@H](C(=O)NCc2ccc(N)nc2C)CC3)c1` [Compound 55, (S)-N-((6-amino-2-methylpyridin-3-yl)methyl)-3-((2,5-dimethylbenzyl)amino)-4-oxo-4,6,7,8-tetrahydropyrrolo[1,2-a]pyrazine-6-carboxamide] are under 500 nM and under 500 nM.
The corresponding values for `Cc1cc(C)cc(CNc2ncc3n(c2=O)[C@H](C(=O)NCc2cc4cnccc4[nH]2)C[C@@H]3C)c1` [Compound 153, (6S,8S)-N-((1H-pyrrolo[3,2-c]pyridin-2-yl)methyl)-3-((3,5-dimethylbenzyl)amino)-8-methyl-4-oxo-4,6,7,8-tetrahydropyrrolo[1,2-a]pyrazine-6-carboxamide] are 2500 to 10000 nM and under 500 nM.
On to `Cc1cc2[nH]c(CNC(=O)[C@@H]3CCc4cnc(NCc5cccc(C(C)(C)O)c5)c(=O)n43)cc2cn1` [Compound 68, (S)-3-((3-(2-hydroxypropan-2-yl)benzyl)amino)-N-((6-methyl-1H-pyrrolo[3,2-c]pyridin-2-yl)methyl)-4-oxo-4,6,7,8-tetrahydropyrrolo[1,2-a]pyrazine-6-carboxamide], for which the results for the Ki on human α-thrombin and on MASP-2 (CCP1-CCP2-SP) were over 25000 nM and under 500 nM, respectively.
As for `Cc1cc(F)cc(CNc2nc(-c3cnn(C(F)F)c3)c3n(c2=O)[C@H](C(=O)NCc2cc4c(s2)CNC4)CC3)c1` [Compound 219, (S)-1-(1-(difluoromethyl)-1H-pyrazol-4-yl)-N-((5,6-dihydro-4H-thieno[2,3-c]pyrrol-2-yl)methyl)-3-((3-fluoro-5-methylbenzyl)amino)-4-oxo-4,6,7,8-tetrahydropyrrolo[1,2-a]pyrazine-6-carboxamide trifluoroacetate], the Ki on human α-thrombin is over 25000 nM; at MASP-2 (CCP1-CCP2-SP), under 500 nM.
On to `Cc1nc(N)ccc1CNC(=O)[C@@H]1CCc2cnc(NCc3cccc(CO)c3)c(=O)n21` [Compound 47, (S)-N-((6-amino-2-methylpyridin-3-yl)methyl)-3-((3-(hydroxymethyl)benzyl)amino)-4-oxo-4,6,7,8-tetrahydropyrrolo[1,2-a]pyrazine-6-carboxamide], for which the Ki on human α-thrombin and at MASP-2 (CCP1-CCP2-SP) was under 500 nM in each case.
For `CC[C@H]1C[C@@H](C(=O)NCc2cc3cnccc3[nH]2)n2c1c(Cl)nc(NCc1ccccc1)c2=O` [Compound 159, (6S,8S)—N-((1H-pyrrolo[3,2-c]pyridin-2-yl)methyl)-3-(benzylamino)-1-chloro-8-ethyl-4-oxo-4,6,7,8-tetrahydropyrrolo[1,2-a]pyrazine-6-carboxamide], the Ki at human α-thrombin was 10000 to 25000 nM; on MASP-2 (CCP1-CCP2-SP), under 500 nM.
